Reference: patent US6197806A, “Eliminating agent for activated oxygen and free radicals” (Nippon Zoki Pharmaceutical Co., Ltd., priority 1995, dated 2001)

Test: Measurement of ability for eliminating hydroxyl radicals (ESR spin trapping method, Fenton's reaction, DMPO)
Details: 1 mM of DMPO; DMPO-OH ESR signal; phosphate buffer pH 7.8; room temperature; read-out: Concentration of Test Substance at 50% Inhibition of Signal Intensity, IC50
Procedure: Ability of the test substances for eliminating hydroxyl radicals was measured using an ESR spin trapping method which is frequently used for the detection of hydroxyl radicals. Generation of hydroxyl radicals was carried out using a Fenton's reaction in which hydroxyl radicals are generated by a reaction of divalent iron chelated with DTPA (diethylenediamine-pentaacetic acid) with hydrogen peroxide. […] When a test substance having an eliminating action for hydroxyl radicals is present in this reaction system, the above characteristic signal is inhibited and, therefore, the ability for eliminating hydroxyl radicals can be measured using that signal inhibition as an index.
Thus, a solution of a mixture of 1 mM of ferrous sulfate and DTPA dissolved in 100 mM of a phosphate buffer (pH 7.8) was charged in a test tube. Then, 50 μl of a sample solution containing the test substance or hydantoin compound of the invention and 20 μl of 1 mM or 2 mM of DMPO were added. Finally, 75 μl of 1 mM of hydrogen peroxide solution was added to the resulting mixture to initiate the reaction. Hydrogen peroxide solution was prepared immediately before each of the experiments and the reaction was conducted at room temperature.
An ESR spectrum in this reaction system was measured by conventional means. […]

IC50: 1000 µM
SMILES: CN1C(=O)NC(=O)C1O (stereo not shown) [Compound 21, 5-Hydroxy-1-methylhydantoin]
